Data taken from publication PMC12064818, “A general assay platform to study protein pharmacology using ligand-dependent structural dynamics” (Nature Communications, 2025).
Where two headings read alike, the source gives them in different places. One block for each molecule: values may come before it.

Tests used:
PKA = conditions: annotation yes/no for kinase library compound; source not given; cited from earlier work
[1] = target: T1, ABL1-N-HiBiT kinase domain (Homo sapiens, UniProt P00519); assay: ABL1 peptide phosphorylation, Kinase-Glo Plus (KGP) assay, ABL1-N-HiBiT; format: biochemical; set-up: containing amino acid residues Asp233-Ser500; His10 (N); made in house; host or cells: E. coli BL21(DE3)
T1 sequence (P00519 233-500): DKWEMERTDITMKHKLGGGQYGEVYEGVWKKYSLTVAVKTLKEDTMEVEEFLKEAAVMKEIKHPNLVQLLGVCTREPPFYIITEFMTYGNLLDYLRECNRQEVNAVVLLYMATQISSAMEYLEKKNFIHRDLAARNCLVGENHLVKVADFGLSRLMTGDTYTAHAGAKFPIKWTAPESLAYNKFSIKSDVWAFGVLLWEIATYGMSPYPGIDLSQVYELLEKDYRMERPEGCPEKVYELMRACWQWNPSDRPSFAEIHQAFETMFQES
Description: Kinase activity was measured by ATP depletion using the Kinase-Glo Plus (KGP) assay kit (Promega) in 1536-well plate format. […] Controls were added with a Mosquito dispenser (STP LabTech) while compounds were transferred with a pintool to each plate as described in Supplementary Data 8 and incubated for 30 min at ambient temperature. […] Following a 10 min incubation, KGP luminescence was measured with a ViewLux plate reader with 1 sec exposure, with medium to high gain setting, slow speed and 2x binning. Data were normalized to the average of no enzyme control column as 100% kinase inhibition and DMSO control column as 100% phosphorylation reaction progress. See Supplementary Table 5 for additional details.
Protocol for Abelson kinase (ABL1) and protein kinase A (PKA) peptide phosphorylation assays
Supplementary Table 5: Protocol for Abelson kinase (ABL1) and protein kinase A (PKA) peptide phosphorylation assays Sequence Param eter Value Description
3 Incubation 30 m in Incubate enzym e + com pounds at am bient tem p for 30 m in, protected from light […]
protocol; dispensed with BioRaptr 2

[2] = target: T1, ABL1-N-HiBiT kinase domain; assay: SDR assay, ABL1-N-HiBiT
PKA-N-HiBiT = PKA-N-HiBiT (Homo sapiens, UniProt P17612); assay: SDR assay, PKA-N-HiBiT
[3] = target: T2, FLuc-C-NLuc (firefly luciferase) (Photinus pyralis, UniProt P08659, form not given/L550V); assay: Firefly luciferase (FLuc) enzymatic luminescence assay, FLuc-C-NLuc; format: biochemical; set-up: key to Enz: % normalized; no enzyme control = 100% inhibition, DMSO = 0; conditions: Log[Compound]
Description: The enzyme activity of FLuc-N-HiBiT, FLuc-C-HiBiT, and FLuc-C-NLuc was measured similar to P. pyralis firefly luciferase (FLuc) as previously described. […] Compounds and controls were added to each plate as described in Supplementary Data 8 with a Hornet pintool system (Wako Automation). Compounds were incubated with respective enzymes for 30–60 min at room temperature protected from light and covered by solid metal lid to prevent evaporation. […] Luciferin was incubated with FLuc enzyme for 5 min before FLuc activity was then measured on a ViewLux CCD imager (PerkinElmer), with exposure times up to ten seconds with medium to high gain settings. Data were normalized to average no enzyme control as 100% enzyme inhibition and average DMSO neutral control. See Supplementary Table 4 for additional details.
Supplementary Table 4. Protocol for Firefly luciferase (FLuc) and NanoLuc (NLuc) enzymatic
Supplementary Table 4: Protocol for Firefly luciferase (FLuc) and NanoLuc (NLuc) enzym atic lum inescence assay
Firefly luciferase (FLuc) enzym atic lum inescence assay
Sequence Param eter Value Description
No enzym e control (colum n 1) and enzym e solution (1- 10 nM FLuc enzym e) in FLuc assay
1 Reagent 4 µLbuffer; white/solid bottom , m edium bind, high base plates (Greiner), dispensed with BioRaptr
com pounds transferred to respective colum ns with Pintool
2b Test Com pounds 23 nLconcentration range) in colum ns 5- 48; com pounds transferred to respective wells with
3 Incubation 30 m in Incubate enzym e + com pounds at am bient tem p for 30 m in, protected from light
4 Reagent 3 µLAdd 3 µL of D-luciferin substrate solution to each well (final concentration 10 µM); dispensed
5 Detector ViewLux Read plate lum inescence (Exposure = 1- 10 sec; Gain = Medium -high; Speed = Slow;
Dispensing solution was diluted in 1X PBS, pH 7.4. […]

[4] = target: T2, FLuc-C-NLuc (firefly luciferase); assay: SDR assay, FLuc-C-NLuc; conditions: Log[Compound]; for SDR+ATP: 10 mM ATP; for SDR: absence of ATP
[5] = ABL1-N-HiBiT qHTS, average, unit inferred, read-out: ABL1 KGP Ave IC50

T2 sequence (P08659 2-550 L550V, form open): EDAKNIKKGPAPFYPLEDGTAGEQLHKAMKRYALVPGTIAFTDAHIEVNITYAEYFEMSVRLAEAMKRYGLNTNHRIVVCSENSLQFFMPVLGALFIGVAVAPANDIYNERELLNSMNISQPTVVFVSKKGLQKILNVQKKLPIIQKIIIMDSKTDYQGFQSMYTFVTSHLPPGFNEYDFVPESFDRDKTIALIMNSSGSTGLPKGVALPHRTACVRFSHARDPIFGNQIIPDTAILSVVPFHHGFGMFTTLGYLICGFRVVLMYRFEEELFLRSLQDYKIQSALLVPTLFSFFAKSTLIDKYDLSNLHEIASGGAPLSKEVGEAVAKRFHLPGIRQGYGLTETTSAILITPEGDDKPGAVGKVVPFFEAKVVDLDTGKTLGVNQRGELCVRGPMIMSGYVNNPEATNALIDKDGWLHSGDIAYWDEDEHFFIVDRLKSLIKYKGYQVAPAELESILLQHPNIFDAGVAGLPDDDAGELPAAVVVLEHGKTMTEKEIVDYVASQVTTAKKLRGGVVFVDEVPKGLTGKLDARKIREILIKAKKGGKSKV

ABL1 KGP pIC50 ([1]; ABL1, Kinase-Glo Plus (KGP), heatmap data, 128 kinase inhibitors): 4.83
IC50 [1, 5]: 15200 nM
ABL1 SDR pSDR50 ([2]; ABL1, SDR, heatmap data, 128 kinase inhibitors): 5.05
SDR Ave Max Response ([2]; ABL1-N-HiBiT qHTS, average maximal SDR response): 62.31
EC50 ([2]; read-out: SDR Ave SDR50, ABL1-N-HiBiT qHTS, average, unit inferred): 9940 nM
SDR Ave Max Response (PKA-N-HiBiT; PKA-N-HiBiT qHTS, SDR assay, average maximal response): 5.90
Compound: c1ccc(-c2oc3ncnc(NC[C@@H]4CCCO4)c3c2-c2ccccc2)cc1 [AIM-100]
Annotated PKA activity (PKA): no

IC50 ([1]; ABL1, Kinase-Glo Plus (KGP), heatmap data, 128 kinase inhibitors, read-out: ABL1 KGP pIC50 (converted)): 17.8 nM
IC50 [1, 5]: 18.2 nM
detection in ABL1-N-HiBiT SDR assay (in words) [2]: potent inhibitor
EC50 ([2]; ABL1 SDR pSDR50, ABL1, SDR, heatmap data, 128 kinase inhibitors): 5.37 nM
EC50 ([2]; SDR Ave SDR50, ABL1-N-HiBiT qHTS, average, unit inferred): 6.72 nM
Emax ([2]; read-out: SDR Ave Max Response): 66.2%
Emax (PKA-N-HiBiT; read-out: SDR Ave Max Response): 16.2%
Compound: CCN1CCN(Cc2ccc(NC(=O)c3ccc(C)c(NC(=O)c4cncc(-c5cccs5)c4)c3)cc2C(F)(F)F)CC1 [ALW-II-41-27, reference compound]
Annotated PKA activity (PKA): no

Compound: CC(NC(=O)C1CCN(C(=O)c2ncn3c2COC(c2ccc(F)cc2)C3)CC1)c1ccc(F)cc1 (stereo not drawn) [NCGC00449825]
Enz ([3]; M -4.48): -1.94
Enz ([3]; M -4.96): 0.62
Enz ([3]; M -5.44): 4.13
Enz ([3]; M -5.91): 4.09
Enz ([3]; M -6.39): 3.17
Enz ([3]; M -6.87): 4.88
Enz ([3]; M -7.35): 4.82
Enz ([3]; M -7.82): 4.76
Enz ([3]; M -8.30): 4.19
Enz ([3]; M -8.78): 1.93
Enz ([3]; M -9.25): -2.04
SDR+ATP ([4]; M -4.48): 5.00
SDR ([4]; M -4.48): 0.68
SDR+ATP ([4]; M -4.96): 3.92
SDR ([4]; M -4.96): 1.78
SDR+ATP ([4]; M -5.44): 2.46
SDR ([4]; M -5.44): 4.05
SDR+ATP ([4]; M -5.91): 1.09
SDR ([4]; M -5.91): 3.40
SDR+ATP ([4]; M -6.39): 1.15
SDR ([4]; M -6.39): 4.21
SDR+ATP ([4]; M -6.87): 0.36
SDR ([4]; M -6.87): 3.25
SDR+ATP ([4]; M -7.35): 2.57
SDR ([4]; M -7.35): 4.32
SDR+ATP ([4]; M -7.82): 1.95
SDR ([4]; M -7.82): 4.76
SDR+ATP ([4]; M -8.30): 0.0052
SDR ([4]; M -8.30): 4.00
SDR+ATP ([4]; M -8.78): 1.06
SDR ([4]; M -8.78): 4.68
SDR+ATP ([4]; M -9.25): -0.91
SDR ([4]; M -9.25): 3.86

Compound: CC1CCC(NC(=O)C2CCN(C(=O)c3ncn4c3COC(c3ccc(Cl)cc3)C4)CC2)CC1 (stereo not drawn) [NCGC00449845]
Enz ([3]; M -4.48): -0.56
Enz ([3]; M -4.96): 2.86
Enz ([3]; M -5.44): 3.07
Enz ([3]; M -5.91): 4.57
Enz ([3]; M -6.39): 5.59
Enz ([3]; M -6.87): 3.54
Enz ([3]; M -7.35): 4.64
Enz ([3]; M -7.82): 4.98
Enz ([3]; M -8.30): 5.03
Enz ([3]; M -8.78): 3.56
Enz ([3]; M -9.25): 2.70
SDR+ATP ([4]; M -4.48): 6.40
SDR ([4]; M -4.48): 1.49
SDR+ATP ([4]; M -4.96): 2.52
SDR ([4]; M -4.96): 2.34
SDR+ATP ([4]; M -5.44): 1.90
SDR ([4]; M -5.44): 1.62
SDR+ATP ([4]; M -5.91): 1.22
SDR ([4]; M -5.91): 2.01
SDR+ATP ([4]; M -6.39): 1.15
SDR ([4]; M -6.39): 2.08
SDR+ATP ([4]; M -6.87): -0.36
SDR ([4]; M -6.87): 2.37
SDR+ATP ([4]; M -7.35): 0.68
SDR ([4]; M -7.35): 2.03
SDR+ATP ([4]; M -7.82): -0.0316
SDR ([4]; M -7.82): 3.50
SDR+ATP ([4]; M -8.30): 1.78
SDR ([4]; M -8.30): 4.33
SDR+ATP ([4]; M -8.78): 0.25
SDR ([4]; M -8.78): 3.88
SDR+ATP ([4]; M -9.25): 0.08
SDR ([4]; M -9.25): 3.41

Compound: O=C(Nc1cccc(F)c1)C1CCN(C(=O)c2ncn3c2COC(c2ccccc2)C3)CC1 (stereo not drawn) [NCGC00449914]
Enz ([3]; M -4.48): -94.95
Enz ([3]; M -4.96): -88.02
Enz ([3]; M -5.44): -77.30
Enz ([3]; M -5.91): -54.79
Enz ([3]; M -6.39): -35.39
Enz ([3]; M -6.87): -17.29
Enz ([3]; M -7.35): -8.21
Enz ([3]; M -7.82): -6.89
Enz ([3]; M -8.30): -1.14
Enz ([3]; M -8.78): 0.15
Enz ([3]; M -9.25): -6.05
SDR+ATP ([4]; M -4.48): 74.59
SDR ([4]; M -4.48): 9.87
SDR+ATP ([4]; M -4.96): 66.41
SDR ([4]; M -4.96): 8.14
SDR+ATP ([4]; M -5.44): 59.05
SDR ([4]; M -5.44): 7.78
SDR+ATP ([4]; M -5.91): 45.60
SDR ([4]; M -5.91): 15.68
SDR+ATP ([4]; M -6.39): 30.44
SDR ([4]; M -6.39): 7.72
SDR+ATP ([4]; M -6.87): 16.83
SDR ([4]; M -6.87): 9.23
SDR+ATP ([4]; M -7.35): 11.29
SDR ([4]; M -7.35): 8.67
SDR+ATP ([4]; M -7.82): 8.00
SDR ([4]; M -7.82): 8.73
SDR+ATP ([4]; M -8.30): 7.51
SDR ([4]; M -8.30): 7.88
SDR+ATP ([4]; M -8.78): 6.04
SDR ([4]; M -8.78): 10.30
SDR+ATP ([4]; M -9.25): 5.78
SDR ([4]; M -9.25): 9.59

Compound: COc1ccc(NC(=O)C2CCN(C(=O)c3ncn4c3COC(c3ccccc3)C4)CC2)cc1Cl (stereo not drawn) [NCGC00449919]
Enz ([3]; M -4.48): -93.84
Enz ([3]; M -4.96): -85.33
Enz ([3]; M -5.44): -72.77
Enz ([3]; M -5.91): -49.98
Enz ([3]; M -6.39): -32.08
Enz ([3]; M -6.87): -7.65
Enz ([3]; M -7.35): -0.43
Enz ([3]; M -7.82): 7.65
Enz ([3]; M -8.30): 6.82
Enz ([3]; M -8.78): 6.26
Enz ([3]; M -9.25): 2.02
SDR+ATP ([4]; M -4.48): 74.73
SDR ([4]; M -4.48): 14.81
SDR+ATP ([4]; M -4.96): 70.92
SDR ([4]; M -4.96): 15.10
SDR+ATP ([4]; M -5.44): 66.79
SDR ([4]; M -5.44): 16.90
SDR+ATP ([4]; M -5.91): 50.80
SDR ([4]; M -5.91): 12.53
SDR+ATP ([4]; M -6.39): 35.23
SDR ([4]; M -6.39): 11.82
SDR+ATP ([4]; M -6.87): 18.65
SDR ([4]; M -6.87): 11.53
SDR+ATP ([4]; M -7.35): 11.38
SDR ([4]; M -7.35): 9.61
SDR+ATP ([4]; M -7.82): 10.88
SDR ([4]; M -7.82): 14.00
SDR+ATP ([4]; M -8.30): 10.09
SDR ([4]; M -8.30): 12.41
SDR+ATP ([4]; M -8.78): 7.62
SDR ([4]; M -8.78): 12.26
SDR+ATP ([4]; M -9.25): 7.37
SDR ([4]; M -9.25): 12.55
